In patent publication US20240027453A1, “METHOD FOR DETECTION AND QUANTITATIVE MONITORING OF INFECTIONS WITH HERPESVIRUSES” (The Trustees of Princeton University, priority 2020, published 2024):
Where two headings read alike, the source gives them in different places.

System: HCMV
Format: cell-based
Protocol: In example herpesvirus PRM assay methods shown herein, cell pellets were lysed in 2% SDS, 100 mM NaCl, 0.5 mM EDTA, 50 mM Tris, pH 8.2, and 50 μg of protein was reduced and alkylated with 25 mM TCEP and 50 mM CAM respectively for 20 min at 70° C. Proteins were then precipitated via methanol chloroform precipitation (Wessel & Flugg, Anal Biochem. 138(1):141-143, 1984), resuspended in 50 mM HEPES, pH 8.2 and digested overnight with trypsin (50:1 protein:enzyme w/w ratio). Digested peptides were desalted by SDB-RPS StageTip as previously described (Lum et al., Cell Syst., 7(6):[…], 2018; Greco et al., Methods Mol Biol 1410:39-63, 2016; Federspiel & Cristea, Methods Mol Biol., 1977:115-143, 2019).
Peptides (1.0 μg on column) were analyzed by LC-MS/MS using a Dionex Ultimate 3000 UHPLC coupled online to an EASYSpray ion source and a Q Exactive HF. Peptides were separated on an EASYSpray C18 column (75 μm×25 cm) heated to 50° C. using a linear gradient of 5% B to 32% B over 60 min at a flow rate of 250 nL/min and were ionized at 1.7 kv. Mobile phase A consisted of 0.1% FA in H2O and mobile phase B consisted of 0.1% FA, 2.9% H2O in ACN.
The PRM method was controlled by a peptide inclusion list with retention time windows of 6 min for selected precursor ions.
The PRM assay was developed and analyzed using the open-source software Skyline (Maclean et al., Bioinformatics 26(7):966-968, 2010). Summed area under the curve of 3-4 transitions per peptide was used for quantitation. Targeted peptides were normalized to host protein loading control peptides. Peptide values for each sample were scaled to the average of each peptide across all runs. The average of multiple peptides was used as the inferred value for the protein measurement when more than one peptide was quantified (Federspiel et al., PLoS Biol. 17(9):e3000437. Doi: 10.1371/journal.pbio.3000437). PRM quantitation data were graphed using the Python Seaborn and Matplotlib libraries.
MRC5 primary human fibroblasts (HFs) (ATCC CCL-171) were used as the model system for HSV-1 and HCMV infections and were cultured in complete growth medium (DMEM supplemented with 10% fetal bovine serum and 1% penicillin-streptomycin antibiotics) at 37° C. and 5% CO2. iSLK.219 cells harboring latent KSHV (a gift from Dr. Britt Glaunsinger, University of California, Berkeley) were grown in complete growth medium supplemented with 500 μg/ml hygromycin (ThermoFisher Scientific, 10687010) at 37° C. and 5% CO2. All cells were used for experiments within a maximum of 10 passages.
Wild type HSV-1 strain 17+ (a gift from Beate Sodeik, Hannover Medical School, Hannover, Germany) was propagated as previously described (Diner et al., 2015). Briefly, PO stocks were generated by electroporating pBAC-HSV-1 into U-2 OS cells. […] In a similar manner, wild type HCMV strain AD169 was produced from BAC electroporation into HFs and working stocks were propagated by infecting HFs at a low level. In both cases, cell-associated virus was released by sonication, combined with supernatant virus, then concentrated by ultracentrifugation (20,000 rpm, 2 hours, 4° C. with SW28 swinging bucket rotor [Beckman Coulter]) over a 10% ficoll (HSV-1) or 20% sorbitol (HCMV) cushion. Virus stock titers were determined by plaque assay for HSV-1 or tissue culture infectious dose (TCID50) for HCMV and infections were performed at a multiplicity of infection (MOI) of 3.
12 hours prior to virus infection or reactivation, cells were treated with either the small molecule drug or DMSO/PBS control at an equivalent volume. […] For infection cycles lasting longer than 24 hours, small molecule drugs were re-added to the cell culture medium every 24 hours. Upon collection, cells were rinsed with PBS, scraped into a microcentrifuge tube, pelleted by centrifugation, and rinsed again with PBS.

## Nc1ccn(C[C@@H](CO)OCP(=O)(O)O)c(=O)n1 [CDV, cidofovir]
DE, timepoint 96
  gB (P06473) protein, numerical value of heatmap FIG. 6C: 0.9959
  sp|P09710|IR01_HCMVA (P09710) protein, numerical value of heatmap FIG. 6C: 0.4967
DE, timepoint 120
  CVC2 (P16726) protein, numerical value of heatmap FIG. 6C: 0.9588
  DBP (P17147) protein, numerical value of heatmap FIG. 6C: 2.035
  HELI (P16736) protein, numerical value of heatmap FIG. 6C: 1.128
  NEC1 (P16794) protein, numerical value of heatmap FIG. 6C: 1.121
  NEC2 (P16791) protein, numerical value of heatmap FIG. 6C: 1.797
  RIR1 (P16782) protein, numerical value of heatmap FIG. 6C: 1.313
  TRM1 (P16724) protein, numerical value of heatmap FIG. 6C: 1.312
  UL4 (P17146) protein, numerical value of heatmap FIG. 6C: 0.635
  UL26 (P16762) protein, numerical value of heatmap FIG. 6C: 1.564
  UL32 (P08318) protein, numerical value of heatmap FIG. 6C: 1.478
  UL34 (P16812) protein, numerical value of heatmap FIG. 6C: 0.9444
  UL35 (P16766) protein, numerical value of heatmap FIG. 6C: 1.133
  UL38 (P16779) protein, numerical value of heatmap FIG. 6C: 1.272
  UL44 (P16790) protein, numerical value of heatmap FIG. 6C: 1.235
  UL48 (P16785) protein, numerical value of heatmap FIG. 6C: 1.1
  UL54 (P08546) protein, numerical value of heatmap FIG. 6C: 1.415
  UL71 (P16823) protein, numerical value of heatmap FIG. 6C: 1.229
  UL78 (P16751) protein, numerical value of heatmap FIG. 6C: 0.9208
  UL84 (P16727) protein, numerical value of heatmap FIG. 6C: 1.217
  UL95 (P16801) protein, numerical value of heatmap FIG. 6C: 0.7275
  UL96 (P16787) protein, numerical value of heatmap FIG. 6C: 1.265
  UL97 (P16788) protein, numerical value of heatmap FIG. 6C: 1.137
  UL98 (P16789) protein, numerical value of heatmap FIG. 6C: 1.14
  UL102 (P16827) protein, numerical value of heatmap FIG. 6C: 1.353
  UL104 (P16735) protein, numerical value of heatmap FIG. 6C: 0.8938
  UL112/UL113 (P17151) protein, numerical value of heatmap FIG. 6C: 0.8795
  UL114 (P16769) protein, numerical value of heatmap FIG. 6C: 1.541
  UL119/UL118 (P16739) protein, numerical value of heatmap FIG. 6C: 0.8678
  UL128 (P16837) protein, numerical value of heatmap FIG. 6C: 1.193
  US8 (P09730) protein, numerical value of heatmap FIG. 6C: 1.14
  US9 (P09729) protein, numerical value of heatmap FIG. 6C: 1.342
  US12 (P09721) protein, numerical value of heatmap FIG. 6C: 0.661
  US13 (P09720) protein, numerical value of heatmap FIG. 6C: 0.7786
  US14 (P09719) protein, numerical value of heatmap FIG. 6C: 0.6977
  US18 (P69334) protein, numerical value of heatmap FIG. 6C: 0.679
  US22 (P09722) protein, numerical value of heatmap FIG. 6C: 1.167
  US23 (P09701) protein, numerical value of heatmap FIG. 6C: 1.024
  US24 (P09700) protein, numerical value of heatmap FIG. 6C: 1.043
  gB (P06473) protein, numerical value of heatmap FIG. 6C: 1.203
  sp|P09710|IR01_HCMVA (P09710) protein, numerical value of heatmap FIG. 6C: 0.7849
IE, timepoint 24
  IRS1 (P09715) protein, numerical value of heatmap FIG. 6C: 0.2
  TRS1 (P09695) protein, numerical value of heatmap FIG. 6C: 0.1103
  UL13 (P16755) protein, numerical value of heatmap FIG. 6C: 0.5131
  UL36 (P16767) protein, numerical value of heatmap FIG. 6C: 0.9885
  UL37 (P16778) protein, numerical value of heatmap FIG. 6C: 0.5466
  UL122 (P19893) protein, numerical value of heatmap FIG. 6C: 0.05364
  UL123 (P13202) protein, numerical value of heatmap FIG. 6C: 0.7324
IE, timepoint 48
  IRS1 (P09715) protein, numerical value of heatmap FIG. 6C: 0.5408
  TRS1 (P09695) protein, numerical value of heatmap FIG. 6C: 0.403
  UL13 (P16755) protein, numerical value of heatmap FIG. 6C: 0.7812
